# Data reported in article PMC9457659, “Exploring The Relative Astringency of Tea Catechins and Distinct Astringent Sensation of Catechins and Flavonol Glycosides via an In Vitro Assay Composed of Artificial Oil Bodies” (Molecules, 2022).
# Columns and labels:
# [1] = molecular target: T1, caleosin–histatin 3 fusion protein (Homo sapiens, UniProt P15516); test: flotation of aggregated artificial oil bodies (emulsion layer thickness), light microscopy; type: binding; details: equal volumes oil bodies and 2 mM catechin; 100 mM potassium phosphate, 50 mM KCl, pH 7.0; normalised to ECG; indirect, no caleosin-only control
# T1 construct: gene HTN3; sesame caleosin lacking residues 101-115 fused with histatin 3; synthetic histatin DNA; E. coli BL21(DE3), insoluble pellet; about 29 kDa; with Caleosin (Peroxygenase)
# [2] = molecular target: T1, caleosin–histatin 3 fusion protein; test: atomic force and scanning electron microscopy of artificial oil bodies; type: binding; details: 5 mM rutin; oil bodies in distilled water, dried on silicon wafer; oil bodies alone set as 100%; indirect, no caleosin-only control
# T1 sequence (P15516 20-51): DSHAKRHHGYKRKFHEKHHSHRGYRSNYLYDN
# T1 sequence (Q9SQ57 with tags, fused parts or gaps DEL101-115 partner): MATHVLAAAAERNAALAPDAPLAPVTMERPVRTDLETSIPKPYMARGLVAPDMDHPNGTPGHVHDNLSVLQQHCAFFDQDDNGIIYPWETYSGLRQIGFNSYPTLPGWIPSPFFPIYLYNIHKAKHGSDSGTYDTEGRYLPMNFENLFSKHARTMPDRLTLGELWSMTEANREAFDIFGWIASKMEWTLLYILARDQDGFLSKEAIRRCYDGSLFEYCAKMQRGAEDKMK
SMILES,relative astringency (%) [1],relative surface roughness (%) [2]
"Oc1cc(O)c2c(c1)O[C@H](c1ccc(O)c(O)c1)[C@@H](O)C2 [C, (+)-catechin]",aggregation of artificial oil bodies interacting with each catechin was examined,–
"O=C(O[C@@H]1Cc2c(O)cc(O)cc2O[C@H]1c1ccc(O)c(O)c1)c1cc(O)c(O)c(O)c1 [CG, (−)-catechin gallate]",aggregation of artificial oil bodies interacting with each catechin was examined,–
"Oc1cc(O)c2c(c1)O[C@H](c1ccc(O)c(O)c1)[C@H](O)C2 [EC, (−)-epicatechin]",aggregation of artificial oil bodies interacting with each catechin was examined,–
"Oc1cc(O)c2c(c1)O[C@H](c1cc(O)c(O)c(O)c1)[C@H](O)C2 [EGC, (−)-epigallocatechin]",aggregation of artificial oil bodies interacting with each catechin was examined,–
"O=C(O[C@@H]1Cc2c(O)cc(O)cc2O[C@@H]1c1cc(O)c(O)c(O)c1)c1cc(O)c(O)c(O)c1 [EGCG, (−)-epigallocatechin gallate]",aggregation of artificial oil bodies interacting with each catechin was examined,–
"Oc1cc(O)c2c(c1)O[C@@H](c1cc(O)c(O)c(O)c1)[C@H](O)C2 [GC, (−)-gallocatechin]",aggregation of artificial oil bodies interacting with each catechin was examined,–
"O=C(O[C@@H]1Cc2c(O)cc(O)cc2O[C@H]1c1cc(O)c(O)c(O)c1)c1cc(O)c(O)c(O)c1 [GCG, (−)-gallocatechin gallate]",aggregation of artificial oil bodies interacting with each catechin was examined,–
C[C@@H]1O[C@@H](OC[C@H]2O[C@@H](Oc3c(-c4ccc(O)c(O)c4)oc4cc(O)cc(O)c4c3=O)[C@H](O)[C@@H](O)[C@@H]2O)[C@H](O)[C@H](O)[C@H]1O [rutin],–,a smooth surface was observed on artificial oil bodies complexed with rutin
